The values below are quoted from earlier work in patent US20240307497A1, “ADIPONECTIN ALONE OR IN COMBINATION WITH EXTRACORPOREAL PHOTOPHERESIS (ECP) FOR IMMUNE RELATED ADVERSE EVENTS OF IMMUNE CHECKPOINT INHIBITORS” (Mallinckrodt Pharmaceuticals Ireland Limited, priority 2022, published 2024).

Entries after “also recorded” stand apart in the source; their conditions may differ. Where two headings read alike, the source gives them in different places.

One data set has as its system ICI-hepatitis. Conditions: cited from earlier work; for Response / Steroid reduction: case reports.
For a further data set, the system named is ICI-colitis. Conditions: cited from earlier work; for ORR (clinical remission) / response rate: retrospective observational cohort, best response at any time point.
Where [1] appears, read: retrospective analysis of 8 patients.
Where [2] appears, read: retrospective analysis of 13 patients.

On to `C=CC[C@@H]1/C=C(\C)C[C@H](C)C[C@H](OC)[C@H]2O[C@@](O)(C(=O)C(=O)N3CCCC[C@H]3C(=O)O[C@H](/C(C)=C/[C@@H]3CC[C@@H](O)[C@H](OC)C3)[C@H](C)[C@@H](O)CC1=O)[C@H](C)C[C@@H]2OC` [Tacrolimus], for which, in the data set on ICI-hepatitis, the Response result is recorded as “Decreasing ALT levels within 2-5” and the Steroid reduction result is “Cessation at 12 months; also recorded: Cessation of prednisolone over 6”.

Consider “Vedolizumab: treatment for ICI-colitis in cited studies”, for which the endoscopic remission rate in the data set with ICI-colitis (retrospective case series, 28 patients refractory to steroids and/or infliximab) was 29%. In addition, the “ORR (clinical remission) / response rate” value in the data set on ICI-colitis and with ICI-colitis (listed as vedolizumab) was 89% each time.

Turning to `COc1c(C)c2c(c(O)c1C/C=C(\C)CCC(=O)OCCN1CCOCC1)C(=O)OC2` [Mycophenolate mofetil], in the data set on ICI-hepatitis, the Response result was “Improved liver injury within 13; also recorded: Discharge of MMF after 68 days; also recorded: Liver function normalized within 3” and the Steroid reduction entry is reported as “Tapered from 60 to 10 mg/d; also recorded: Tapered from 500 to 10 mg/d; also recorded: Discontinuation after 1 year”. For the same compound, the ORR in the data set with ICI-hepatitis (retrospective, 8 patients, liver function tests to grade 1 or less) is reported as 50%. In the data set on ICI-hepatitis (retrospective, 8 patients), the Adverse events is recorded as 25%.

In the case of “Tocilizumab: interleukin-6 blockade by tocilizumab”, in the data set with ICI-colitis (human, in vivo), the “Adverse events, any grade” value was 80% and the “Adverse events, grade 3-4” value was 25%. In the data set with ICI-colitis (prospective trial, best response during 8 weeks), the “patients with reduction in symptoms” value is recorded as 8 of 10. Also, the ORR with ICI-colitis (prospective, 10 patients, colitis improvement (≥1 grade reduction) within 8 weeks) is recorded as 80%. In the data set with ICI-colitis (prospective, 10 patients), the CR is given as 0%.

For the compound Infliximab: TNF antagonist, in the data set with ICI-hepatitis, the Response result is “Partial response, reduction of ALT” and the Steroid reduction result was “Tapering to 30%, off steroid at 14”. Besides, in the data set on ICI-colitis (setting [1]), the CR rate is given as 38% and the ORR is on record as 50%. Moreover, in the data set with ICI-colitis (setting [2]), the CR is given as 31% and the ORR is 45%. For the same compound, the “ORR (clinical remission) / response rate” value in the data set with ICI-colitis was 88%.
